Test results as given in patent US6262095A, “Use of tricyclic derivatives of 1,4-dihydro-1,4-dioxo-1H-naphthalene, novel compounds obtained and their application in theraphy” (Laboratoire Innothera, priority 1995, dated 2001).

Columns and labels:
[1] = tested on: fibroblastic cell lines of mice (L929); assay: Cytotoxicity on L929 fibroblastic cell lines (neutral red incorporation); type: cell-based, mouse; conditions: L929, up to concentrations equal to their solubility in an aqueous medium
Description: (§1) Moreover, the compounds of the invention and their possible salts have a very low toxicity.

[2] = tested on: mice; assay: Single oral administration toxicity in mice; type: in vivo, mouse
Description: as §1

[3] = tested on: saphenous vein in rabbits; assay: Contractile effect on the rabbit saphenous vein precontracted by a depolarizing physiological solution (K+ 40 mM); type: cell-based; conditions: Oryctolagus cuniculus, precontracted with 40 mM potassium; for Emax: % of maximum contraction induced by hyperpotassic solutions; for EC50: read-out: ED50 (the source's name)
Protocol: The contractile effects are measured in vitro under static conditions on vascular capacitance or resistance rings of saphenous, femoral, jugular, mesenteric, and caval veins . . . and on femoral, carotid, basilar, or mesenteric arteries, as well as the thoracic or abdominal aorta . . . in rats (Wistar, 200-250 g), rabbits (New Zealand, 2-2.5 kg), guinea pigs (Dunkin Hartley 250-300 g).
The rings are placed in a chamber for isolated organs (25 mL for capacitance vessels and 2.5 mL for resistance vessels according to Mulvany), and maintained under isometric conditions using two rigid threads inserted inside the vessel, avoiding causing damage to the endothelium. The vessels are bathed in a modified Krebs solution (in mM: NaCl=118; KCl=4.6; CaCl2 =2.5; MgSO4 =1.2; KH2 PO4 =1.17; NaHCO3 =25; glucose=11), continuously aerated using a gaseous mixture of 95% O2 and 5% Co2, at a pH=7.4, and regulated by thermostat at 37° C. The rings are adjusted to their optimal point as far as the tension-length relationship is concerned. The tensions developed generate an electrical signal through the intermediary of a force sensor (Wheatstone bridge). […] The pharmacological studies are carried out after a few standardized preliminary contractile stimulations using a depolarizing solution (hyperpotassic type obtained by replacing NaCl with KCl in equimolar quantities), along with rinsings and periods of equilibration in a pure physiological solution. The presence of endothelium is verified by the relaxation induced by increasing the concentration of acetylcholine after the stabilization of a vascular precontraction.
The forces of contraction developed by the vascular rings in response to the different compounds are studied on quiescent or electrically stimulated vessels (5-8 Hz), by a "physiological" depolarizing hyperpotassic solution (KCl: 20, 40 mM), by noradrenaline (increasing concentrations), [and by] serotonin (increasing concentrations).
The contractions are expressed in mg force or as a percentage of the maximum contraction at the time of the depolarization with a "physiological" hyperpotassic solution.
The contractile effect of different compounds on the saphenous vein in rabbits, precontracted by a depolarizing "physiological" solution with a potassium concentration of 40 mM, is given as an illustration; the maximum effect produced by each compound is expressed as a percentage of the maximum contraction induced by depolarizing hyperpotassic solutions and as value of ED50): […]

[4] = tested on: hyperpermeability induced by zymosan in rats; assay: Inflammatory hyperpermeability induced by zymosan in rats; type: in vivo, rat (Wistar); conditions: rat, oral
Protocol: The vascular permeability is studied in vivo by measuring the extravasation of albumin, the quantity of which is determined using an albumin-binding dye (Evans blue).
The hyperpermeability is induced by the intradermal injection of a solution of histamine, bradykinin, or zymosan.
The abdominal walls of the rats (Wistar, 200-230 g) are shorn 1 h before the start of the experiment. The product to be tested is injected by the intraperitoneal route or orally 1-4 h before the sacrifice. The rats are anesthetized with a halothane mixture. They then receive an intradermal injection in their abdomen of 0.10 or 0.15 mL (or for histamine 6.7 or […]) of inflammatory agent and an intravenous injection of 1 mL of 0.5% Evans blue solution in the vein of the penis. These injections are carried out 30 min before the sacrificing.
30 min after these two injections, the rats are sacrificed by cervical dislocation.
At the site of the injection of the inflammatory agent, the skin is cut and placed into glass tubes with a ground[-glass] neck containing 3 mL of fuming hydrochloric acid. […] After allowing the preparation to stand for 30 min, 7 mL of dichloromethane are added. The tubes are periodically agitated for 1 h. The aqueous phase is eliminated by aspiration, and the organic "dichloromethane" phase is filtered. The optical densities are quantified by absorption spectrophotometry at a wavelength of 620 nm, against a blank [control] containing only dichloromethane. The averages of the optical densities of the different lots of treated or control animals are calculated, then a percentage of variation of the values corresponding to the treated [experimental] animals compared to those of the control animals is calculated.

[5] = tested on: capillary resistance of rats; assay: Capillary resistance of rats after oral administration (petechial index); type: in vivo, rat (Wistar); conditions: rat
Protocol: The increase in the capillary resistance is evaluated by the modification of the petechial index (negative pressure inducing the extravasation of the erythrocytes), measured by a method derived from the angiosterrometer of Parrot.
The studies are carried out on male Wistar rats with an average weight of 200 g (approximate age six weeks). The bottom area of the back is shorn, then the hair is pulled by means of a paste based on a derivative of thioglycolic acid and calcium hydroxide. After approximately 30 min, the skin is abundantly rinsed and dried.
On the day of the study, the rats are maintained without constraint. A low pressure of 80 mm of mercury is applied. If the petechiae (extravasation of erythrocytes) have not appeared within 15 sec, the low pressure is increased as a countermeasure, keeping the suction cap at the same place.
The minimum low pressure where petechias appear, in mm of mercury, expresses the basal capillary resistance (before any treatment). Two measurements are made for each test at different sites on of the back.
The rats are treated by the oral route. […] All the measurements are done in the blind mode.
A percentage of variation in the capillary resistances of the animals treated compared to their basal capillary resistance is calculated for each compound studied, at each treatment time and compared with the control group (excipient only) or the reference group.

[6] = single oral administration of 500 mg/kg
[7] = single oral administration, 1 g/kg

| Structure (SMILES) | cytotoxicity (viability by neutral red incorporation) [1] | toxic effect and mortality [2, 6] | Emax [3] [%] | EC50 [3] [nM] | Zymosan-induced hyperpermeability, effect after 2 h ([4]; 0.1 mg/kg) | Zymosan-induced hyperpermeability, effect after 4 h ([4]; 0.1 mg/kg) | toxic effect and mortality [2, 7] | other results |
| --- | --- | --- | --- | --- | --- | --- | --- | --- |
| O=C1c2ccccc2C(=O)c2oc(-c3ccccc3F)nc21 [Example 3, 4,9-Dihydro-4,9-dioxo-2-(2-fluorophenyl)-naphtho[2,3-d]oxazole] | noncytotoxic | no observable toxic effect and no mortality | 17 ± 6 | 36 | -22 % of the control | -26 % of the control | – | observed signs [2, 6]: slight diarrheas; Increase of capillary resistance, effects after 4 h ([5]; 5 mg/kg): 27 % of the control; Increase of capillary resistance, effect after 6 h ([5]; 5 mg/kg): 18 % of the control |
| O=C1c2ccccc2C(=O)c2oc(-c3cccc(F)c3)nc21 [Example 4, 4,9-Dihydro-4,9-dioxo-2-(3-fluorophenyl)-naphtho[2,3-d]oxazole] | noncytotoxic | – | 29 ± 11 | 42 | – | – | – | – |
| Cc1ccccc1-c1nc2c(o1)C(=O)c1ccccc1C2=O [Example 6, 4,9-Dihydro-4,9-dioxo-2-(2-methylphenyl)-naphtho[2,3-d]oxazole] | – | no observable toxic effect and no mortality | – | – | – | – | – | – |
| O=C1c2ccccc2C(=O)c2sc(-c3cccc(F)c3)nc21 [Example 13, 4,9-Dihydro-4,9-dioxo-2-(3-fluorophenyl)-naphtho[2,3-d]thiazole] | – | – | 21 ± 3 | 57 | – | – | no observable toxic effect and no mortality | – |
| O=C1c2ccccc2C(=O)c2sc(-c3cccs3)nc21 [Example 20, 4,9-Dihydro-4,9-dioxo-2-(2-thienyl)-naphtho[2,3-d]thiazole] | noncytotoxic | – | 24 ± 4 | 110 | – | – | – | – |
| O=C1c2ccccc2C(=O)c2sc(-c3ccsc3)nc21 [Example 21, 4,9-Dihydro-4,9-dioxo-2-(3-thienyl)-naphtho[2,3-d]thiazole] | noncytotoxic | – | – | – | – | – | – | Zymosan-induced hyperpermeability, effect after 2 h ([4]; 5 mg/kg): -22 % of the control; Zymosan-induced hyperpermeability, effect after 4 h ([4]; 5 mg/kg): -21 % of the control; Increase of capillary resistance, effects after 4 h ([5]; 5 mg/kg): 10 % of the control; Increase of capillary resistance, effect after 6 h ([5]; 5 mg/kg): 22 % of the control |
| O=C1c2ccccc2C(=O)c2oc(-c3ccccc3)nc21 [Example f, 4,9-Dihydro-4,9-dioxo-2-phenylnaphtho[2,3-d]oxazole] | noncytotoxic | – | 15 ± 1 | 21 | -15 % of the control | -22 % of the control | no observable toxic effect and no mortality | Increase of capillary resistance, effects after 4 h ([5]; 0.1 mg/kg): 7 % of the control; Increase of capillary resistance, effect after 6 h ([5]; 0.1 mg/kg): 17 % of the control |
| Cc1nc2c(s1)C(=O)c1ccccc1C2=O [Example h, 4,9-Dihydro-4,9-dioxo-2-methylnaphtho[2,3-d]thiazole] | – | – | 29 ± 6 | 86 | – | – | no observable toxic effect and no mortality | observed signs [2, 7]: diarrheas; Increase of capillary resistance, effects after 4 h ([5]; 0.1 mg/kg): 19 % of the control; Increase of capillary resistance, effect after 6 h ([5]; 0.1 mg/kg): 19 % of the control |
| O=C1c2ccccc2C(=O)c2sc(-c3ccccc3)nc21 [Example j, 4,9-Dihydro-4,9-dioxo-2-phenylnaphtho[2,3-d]thiazole] | noncytotoxic | no observable toxic effect and no mortality | 16 ± 6 | 30 | -14 % of the control | -32 % of the control | – | – |
